{"source": "patent US11246929B2", "about": "“Combination of a protein kinase inhibitor and an additional chemotherapeutic agent” (Merck Patent GmbH, priority 2016, dated 2022)", "assay_type_in_all_cases": "in vivo", "key": {"DNA-PK (p-Ser2056)": {"molecular_target": "T1, DNA-PK (p-Ser2056) (Homo sapiens, UniProt P78527)", "T1 construct": "from tissue; host or cells: human tumor xenografts (FaDu, HCT116, WM164) grown in mice", "experiment": "IR-induced DNA-PK phosphorylation in tumor tissue, ELISA, HCT116 xenograft", "conditions": "IR 50 Gy", "excerpt": "Following the induction of DSB by radiation therapy or other DNA damaging agents, the catalytic subunit of DNA-PK (DNA-PKc) is autophosphorylated at several serine and threonine residues. Ser2056 is one of the most prominent and best studied autophosphorylation sites. Because Ser2056 phosphorylation (p-Ser2056) correlated well with DNA-PK activation state it was chosen as the pharmacodynamics (PD) biomarker. Two different assay formats were established to measure p-Ser2056 in tumor tissue: ELISA and MSD format. In order to detect sequence reliable signal, IR was used at 50 Gy for the ELISA assay and 10 Gy for the more sensitive MSD assay."}, "[1]": {"tested_on": "FaDu (H&N, squamous) xenograft", "excerpt": "The models were chosen from different cancer indications (colon, lung, head and neck, pancreatic), and histological subtypes (adeno, squamous, large cell). […]\nThe resulting Kaplan-Meier plots were compared by the log-rank test."}, "NCI-H460 xenograft": {"tested_on": "NCI-H460 xenograft", "text": "The NCI-H460 was chosen as a model relatively insensitive to IR treatment."}}, "note": "“And” between values parts separate entries of the source, which are not always exact repeats. Identical values can stand only once. Like-named read-outs stand apart in the source and are kept apart here."}
{"compound": "COc1ccc([C@@H](O)c2cc(-c3ncnc4cc(N5CCOCC5)ccc34)c(F)cc2Cl)nn1", "note": "[Compound 1, (S)-[2-chloro-4-fluoro-5-(7-morpholin-4-yl-quinazolin-4-yl)-phenyl]-(6-methoxy-pyridazin-3-yl)-methanol]", "values": [{"measurement": "inhibition of IR-induced DNA-PK phosphorylation (Ser2056)", "setting": "DNA-PK (p-Ser2056)", "value": "Dose-dependent inhibition"}, {"measurement": "Enhancement Ratio [combi/IR only]", "setting": "[1]; IR 10 Gy (5 x 2 Gy) + Compound 1 150 mg/kg po", "value": 2.1}, {"measurement": "median time to TV400% Combi", "setting": "[1]; IR 10 Gy (5 x 2 Gy) + Compound 1 150 mg/kg po 10 min prior to each fraction", "value": 46, "unit": "days"}, {"measurement": "tumor response", "setting": "[1]; daily 4 Gy (20 Gy total), 100 mg/kg, 92 day observation period", "value": "complete response"}, {"measurement": "Enhancement Ratio [combi/IR only]", "setting": "[1]; total IR 10 Gy, 25 mg/kg po", "value": 1.4}, {"measurement": "median time to TV400% Combi", "setting": "[1]; total IR 10 Gy, 25 mg/kg po", "value": 29.5, "unit": "days"}, {"measurement": "Enhancement Ratio [combi/IR only]", "setting": "[1]; total IR 10 Gy, 100 mg/kg po", "value": 1.9}, {"measurement": "median time to TV400% Combi", "setting": "[1]; total IR 10 Gy, 100 mg/kg po", "value": 40, "unit": "days"}, {"measurement": "median time to TV400% Combi", "setting": "[1]; total IR 10 Gy, 300 mg/kg po", "value": ">63", "unit": "days"}, {"measurement": "CR (complete response)", "setting": "[1]; total IR 10 Gy, 300 mg/kg po, d 63", "value": 60, "unit": "% CR"}, {"measurement": "Enhancement Ratio [combi/IR only]", "setting": "[1]; total IR 20 Gy, 5 mg/kg po", "value": 0.9}, {"measurement": "median time to TV400% Combi", "setting": "[1]; total IR 20 Gy, 5 mg/kg po", "value": 43, "unit": "days"}, {"measurement": "Enhancement Ratio [combi/IR only]", "setting": "[1]; total IR 20 Gy, 10 mg/kg po", "value": 1.13}, {"measurement": "median time to TV400% Combi", "setting": "[1]; total IR 20 Gy, 10 mg/kg po", "value": 56.5, "unit": "days"}, {"measurement": "median time to TV400% Combi", "setting": "[1]; total IR 20 Gy, 100 mg/kg po", "value": ">94", "unit": "days"}, {"measurement": "CR (complete response)", "setting": "[1]; total IR 20 Gy, 100 mg/kg po, d 94", "value": 100, "unit": "% CR"}, {"measurement": "Enhancement Ratio [combi/IR only]", "setting": "[1]; total IR 30 Gy (6 Gy daily), 10 mg/kg po, 10 mg/kg", "value": "2 and 1.9"}, {"measurement": "Enhancement Ratio [combi/IR only]", "setting": "[1]; total IR 30 Gy, 5 mg/kg po", "value": 1.4}, {"measurement": "median time to TV400% Combi", "setting": "[1]; total IR 30 Gy, 5 mg/kg po", "value": 69, "unit": "days"}, {"measurement": "median time to TV400% Combi", "setting": "[1]; total IR 30 Gy, 10 mg/kg po", "value": 94, "unit": "days"}, {"measurement": "tolerability", "setting": "[1]; total IR 30 Gy, 100 mg/kg po", "value": "not tolerated"}, {"measurement": "tumor response", "setting": "NCI-H460 xenograft; 6 weeks IR (60 Gy total) + Compound 1 25 and 50 mg/kg po", "value": "regressed during the treatment and observation period up to approximately day 90"}, {"measurement": "tumor volume vs starting volume", "setting": "NCI-H460 xenograft; 6 weeks IR + 50 mg/kg, 42 days of treatment plus 68 days observation", "value": "did not exceed their starting volume"}, {"measurement": "tolerability", "setting": "NCI-H460 xenograft; 6 weeks IR + Compound 1", "value": "generally well tolerated"}]}
